Reference: patent publication US10376520B2, “Methods for the treatment of cardiovascular disorders” (Galapagos NV, priority 2015, dated 2019)

Tested on: RA patients
Experiment: [HDL] determination, Study 1 (RA patients, add-on to MTX)
Type: in vivo, human
Protocol: Double-blind, placebo-controlled add on study in subjects with moderately to severely active RA who have an inadequate response to methotrexate (MTX) (oral or parenteral).
595 subjects randomized to one of 6 dose regimens of Compound 1 (dosed as a [Compound 1:HCl:3H2O]) (3 dose levels administered either once or twice daily) or placebo on top of each subject's stable dose of MTX.
Compound 1 (dosed as a [Compound 1:HCl:3H2O]) is dosed for twelve weeks once daily (q.d.) (50 mg, 100 mg or 200 mg) or twice daily (b.i.d.) (25 mg, 50 mg or 100 mg); or placebo.
At Week 12, the subjects on placebo who have not achieved 20% improvement in swollen joint count (SJC66) and tender joint count (TJC68) are re-randomized automatically to receive Compound 1 (dosed as a [Compound 1:HCl:3H2O]) either at 100 mg q.d. or 50 mg b.i.d. doses in a blinded fashion; subjects on 50 mg q.d. who have not achieved 20% improvement in SJC66 and TJC68 will be assigned to 100 mg q.d. and subjects on 25 mg b.i.d. that have not achieved a 20% improvement in SJC66 and TJC68 will be assigned to 50 mg b.i.d. Subjects who switch treatment at week 12 are handled as if they discontinued at week 12 for the purpose of statistical analysis, whereas subjects in the other groups will maintain their randomized treatment until Week 24.
This assay relies on a homogeneous enzymatic colorimetric test. In the presence of magnesium ions, dextran sulfate selectively forms water-soluble complexes with LDL, VLDL and chylomicrons which are resistant to PEG-modified enzymes.
The cholesterol concentration of [HDL]-cholesterol is determined enzymatically by cholesterol esterase and cholesterol oxidase coupled with PEG to the amino groups (approx. 40%).
In the presence of peroxidase, the hydrogen peroxide generated reacts with 4-amino-antipyrine and Sodium N-(2-hydroxy-3-sulfopropyl)-3,5-dimethoxyaniline (HSDA) to form a purple-blue dye. The color intensity of this dye is directly proportional to the cholesterol concentration and is measured photometrically.
Human serum and plasma samples [HDL] determination was done on a Roche/Hitachi Cobas c 701/702 system which automatically calculate the analyte concentration of each sample. Samples containing precipitates are centrifuged before performing the assay.

[1] = 2 x 25 mg b.i.d. (N = 86), week 1
[2] = 2 x 25 mg b.i.d. (N = 86), week 2
[3] = 2 x 25 mg b.i.d. (N = 86), week 4
[4] = 2 x 25 mg b.i.d. (N = 86), week 8
[5] = 2 x 25 mg b.i.d. (N = 86), week 12
[6] = 2 x 50 mg b.i.d. (N = 85), week 1
[7] = 2 x 50 mg b.i.d. (N = 85), week 2
[8] = 2 x 50 mg b.i.d. (N = 85), week 4
[9] = 2 x 50 mg b.i.d. (N = 85), week 8

O=C(Nc1nc2cccc(-c3ccc(CN4CCS(=O)(=O)CC4)cc3)n2n1)C1CC1 [Compound 1, cyclopropanecarboxylic acid {5-[4-(1,1-dioxo-thiomorpholin-4-ylmethyl)-phenyl]-[1,2,4]triazolo[1,5-a]pyridin-2yl}-amide]
[HDL] Mean CFB - 12 weeks results (50 mg q.d. (N = 82), week 1): 0.02 mmol/L | [HDL] Mean percentage CFB - 12 weeks results (50 mg q.d. (N = 82), week 1): 2% | [HDL] Median CFB - 12 weeks results (50 mg q.d. (N = 82), week 1): 0.01 mmol/L | [HDL] Mean CFB - 12 weeks results (50 mg q.d. (N = 82), week 2): 0.08 mmol/L | [HDL] Mean percentage CFB - 12 weeks results (50 mg q.d. (N = 82), week 2): 5% | [HDL] Median CFB - 12 weeks results (50 mg q.d. (N = 82), week 2): 0.08 mmol/L | [HDL] Mean CFB - 12 weeks results (50 mg q.d. (N = 82), week 4): 0.06 mmol/L | [HDL] Mean percentage CFB - 12 weeks results (50 mg q.d. (N = 82), week 4): 5% | [HDL] Median CFB - 12 weeks results (50 mg q.d. (N = 82), week 4): 0.05 mmol/L | [HDL] Mean CFB - 12 weeks results (50 mg q.d. (N = 82), week 8): 0.06 mmol/L | [HDL] Mean percentage CFB - 12 weeks results (50 mg q.d. (N = 82), week 8): 6% | [HDL] Median CFB - 12 weeks results (50 mg q.d. (N = 82), week 8): 0.10 mmol/L | [HDL] Mean CFB - 12 weeks results (50 mg q.d. (N = 82), week 12): 0.06 mmol/L | [HDL] Mean percentage CFB - 12 weeks results (50 mg q.d. (N = 82), week 12): 7% | [HDL] Median CFB - 12 weeks results (50 mg q.d. (N = 82), week 12): 0.05 mmol/L | [HDL] Mean CFB - 12 weeks results (100 mg q.d. (N = 85), week 1): 0.05 mmol/L | [HDL] Mean percentage CFB - 12 weeks results (100 mg q.d. (N = 85), week 1): 5% | [HDL] Median CFB - 12 weeks results (100 mg q.d. (N = 85), week 1): 0.06 mmol/L | [HDL] Mean CFB - 12 weeks results (100 mg q.d. (N = 85), week 2): 0.07 mmol/L | [HDL] Mean percentage CFB - 12 weeks results (100 mg q.d. (N = 85), week 2): 7% | [HDL] Median CFB - 12 weeks results (100 mg q.d. (N = 85), week 2): 0.07 mmol/L | [HDL] Mean CFB - 12 weeks results (100 mg q.d. (N = 85), week 4): 0.11 mmol/L | [HDL] Mean percentage CFB - 12 weeks results (100 mg q.d. (N = 85), week 4): 9% | [HDL] Median CFB - 12 weeks results (100 mg q.d. (N = 85), week 4): 0.13 mmol/L | [HDL] Mean CFB - 12 weeks results (100 mg q.d. (N = 85), week 8): 0.09 mmol/L | [HDL] Mean percentage CFB - 12 weeks results (100 mg q.d. (N = 85), week 8): 8% | [HDL] Median CFB - 12 weeks results (100 mg q.d. (N = 85), week 8): 0.11 mmol/L | [HDL] Mean CFB - 12 weeks results (100 mg q.d. (N = 85), week 12): 0.10 mmol/L | [HDL] Mean percentage CFB - 12 weeks results (100 mg q.d. (N = 85), week 12): 8% | [HDL] Median CFB - 12 weeks results (100 mg q.d. (N = 85), week 12): 0.10 mmol/L | [HDL] Mean CFB - 12 weeks results (200 mg q.d. (N = 86), week 1): 0.11 mmol/L | [HDL] Mean percentage CFB - 12 weeks results (200 mg q.d. (N = 86), week 1): 9% | [HDL] Median CFB - 12 weeks results (200 mg q.d. (N = 86), week 1): 0.13 mmol/L | [HDL] Mean CFB - 12 weeks results (200 mg q.d. (N = 86), week 2): 0.20 mmol/L | [HDL] Mean percentage CFB - 12 weeks results (200 mg q.d. (N = 86), week 2): 17% | [HDL] Median CFB - 12 weeks results (200 mg q.d. (N = 86), week 2): 0.20 mmol/L | [HDL] Mean CFB - 12 weeks results (200 mg q.d. (N = 86), week 4): 0.24 mmol/L | [HDL] Mean percentage CFB - 12 weeks results (200 mg q.d. (N = 86), week 4): 20% | [HDL] Median CFB - 12 weeks results (200 mg q.d. (N = 86), week 4): 0.25 mmol/L | [HDL] Mean CFB - 12 weeks results (200 mg q.d. (N = 86), week 8): 0.29 mmol/L | [HDL] Mean percentage CFB - 12 weeks results (200 mg q.d. (N = 86), week 8): 22% | [HDL] Median CFB - 12 weeks results (200 mg q.d. (N = 86), week 8): 0.30 mmol/L | [HDL] Mean CFB - 12 weeks results (200 mg q.d. (N = 86), week 12): 0.27 mmol/L | [HDL] Mean percentage CFB - 12 weeks results (200 mg q.d. (N = 86), week 12): 21% | [HDL] Median CFB - 12 weeks results (200 mg q.d. (N = 86), week 12): 0.26 mmol/L | [HDL] Mean CFB - 12 weeks results [1]: 0.00 mmol/L | [HDL] Mean percentage CFB - 12 weeks results [1]: 0% | [HDL] Median CFB - 12 weeks results [1]: 0.00 mmol/L | [HDL] Mean CFB - 12 weeks results [2]: 0.04 mmol/L | [HDL] Mean percentage CFB - 12 weeks results [2]: 4% | [HDL] Median CFB - 12 weeks results [2]: 0.05 mmol/L | [HDL] Mean CFB - 12 weeks results [3]: 0.05 mmol/L | [HDL] Mean percentage CFB - 12 weeks results [3]: 4% | [HDL] Median CFB - 12 weeks results [3]: 0.05 mmol/L | [HDL] Mean CFB - 12 weeks results [4]: 0.06 mmol/L | [HDL] Mean percentage CFB - 12 weeks results [4]: 5% | [HDL] Median CFB - 12 weeks results [4]: 0.10 mmol/L | [HDL] Mean CFB - 12 weeks results [5]: 0.06 mmol/L | [HDL] Mean percentage CFB - 12 weeks results [5]: 6% | [HDL] Median CFB - 12 weeks results [5]: 0.05 mmol/L | [HDL] Mean CFB - 12 weeks results [6]: 0.03 mmol/L | [HDL] Mean percentage CFB - 12 weeks results [6]: 4% | [HDL] Median CFB - 12 weeks results [6]: 0.05 mmol/L | [HDL] Mean CFB - 12 weeks results [7]: 0.12 mmol/L | [HDL] Mean percentage CFB - 12 weeks results [7]: 10% | [HDL] Median CFB - 12 weeks results [7]: 0.10 mmol/L | [HDL] Mean CFB - 12 weeks results [8]: 0.13 mmol/L | [HDL] Mean percentage CFB - 12 weeks results [8]: 12% | [HDL] Median CFB - 12 weeks results [8]: 0.13 mmol/L | [HDL] Mean CFB - 12 weeks results [9]: 0.13 mmol/L | [HDL] Mean percentage CFB - 12 weeks results [9]: 11% | [HDL] Median CFB - 12 weeks results [9]: 0.14 mmol/L
